From PubChem BioAssay AID1259352

test system: C. elegans N2 L1 growth, INVAPP movement imaging, 5 d; assay: nematode growth block, anthelmintic potency – whole organism, N2 L1 worms, INVAPP movement imaging, dose response (AID 1259352)

Compound | EC50 [µM]
COCCNc1nc(NCCOc2ccccc2Cl)c2sccc2n1 | 87
CNc1nc(NCCOc2ccccc2)c2sccc2n1 | 82
CNc1nc(NCCOc2ccccc2Cl)c2sccc2n1 | 11
COc1ccccc1CNc1nc(NCCOc2ccccc2Cl)c2sccc2n1 | 7
